Data taken from patent US5574057A, “Naamidine A extracted from sea sponges and methods for its use as an anti-tumor agent” (priority 1994, dated 1996).
“Also recorded” adds a separate entry of the source.

How the values were obtained:
[1] = system: EGF-induced mitogenesis in EC25 cells (NIH3T3 cells transfected with the EGF receptor gene); test: EGF mitogenic assay (3H-thymidine incorporation), EGF stimulation; format: cell-based, human
From the text: The assay to determine a compound's selectivity compares the level of inhibition of the targeted activity (EGF stimulation of cell growth) with the inhibition of insulin stimulated cell growth.
(§1) An in vitro bioassay, called the EGF mitogenic assay, was used to aid in the identification of antagonists of EGF dependent cell proliferation. The mitogenic response due to EGF is quantified by measuring the incorporation of ^3 H-thymidine into NIH3T3 cells (or "EC25 cells") that have been transfected with the EGF receptor gene. Stimulation of these cells with insulin is used as a "nonspecific" mitogen control. Samples were preincubated with the EC25 cells for one hour before the addition of the mitogen, then further incubated for 16 hours, and mitogenic stimulation assessed by a one hour incorporation of ^3 H-thymidine. The development of the EC25 cell line, and the EGF mitogenic assay in which it is used, is explained in greater detail in Velu, T. J. et al., "Epidermal Growth Factor-Dependent Transformation by a Human EGF Receptor Proto-Oncogene, " Science 238:1408-10 (1987).
(§2) The concentration at which control insulin stimulation is inhibited 50% by the test sample (IC50(insutin)) was calculated as was the same value for EGF (IC50(EGF)). These values were then used to calculate a specificity ratio which is IC50(insulin)/ IC50(EGF).
These activity criteria help determine which inhibitors are specific for the EGF signalling pathway.

[2] = system: human squamous cell carcinoma (A431); test: second in vivo test, A431 xenograft in athymic mice, assessed 7 days after implantation (Experimental Test 8); details: for % Inhibition of tumor growth: q1d×5;1, 7 days; for deaths: q1d×5;1, six mice per group
Method: In this test, the mice were treated with varying dosages of naamidine A for five days after implantation of the carcinoma. The tumors were then evaluated for growth activity seven days after implantation, as determined by the change in tumor size.
The model system used for these in vivo studies was a human squamous cell carcinoma (A431) that over expresses the EGF receptor, which was implanted into athymic mice.
According to Robinson et al., the A431 cell line was adapted to grow in female athymic mice by s.c. inoculation of 10^7 cultured cells into the axillary region. Tumors were passaged in female athymic mice by sterile dissection of solid tumors and s.c. implantation of tumor fragments into the axillary region.
Drug effects were calculated as the mean % inhibition the drug treatment produced on tumor growth when compared to control. Inhibition of >80% of tumor growth was considered a working criteria for "active".
In this second in vivo test, the length of time for tumor growth was shortened to seven days to more closely coincide with the time of drug treatment. Two groups of twelve mice each were treated with the standard antibody (MA225), while there were six mice per group treated with varying doses of naamidine A.
The tumor was exposed to the test agent (naamidine A) once a day for 5 days (q1 d×5; 1), which was nearly the entire length of the growth period of 7 days. During this time, the tumor would normally be expected to double about 1.5 times instead of 3 times for a 15 day period.
Under these conditions, doses ranging from 0.78 mg/kg to 50 mg/kg were given using the same dosing schedule as with the first experiment.

EGF receptor = test: competition with binding of biotinylated EGF to A431 cells; set-up: species or system human; details: up to 500 μg/ml
Method: Experimental Test 4. Presently, the mechanism of action of naamidine A for inhibition of the EGF signalling pathway is unknown. […] This assay measured the ability of naamidine A to compete with the binding of biotinylated EGF to the EGF receptor, which is highly over expressed in A431 human squamous cell carcinoma cells.
In the assay represented in FIG. 3, the A431 cells were incubated in the presence of either the EGF standard or naamidine A plus biotinylated EGF for one hour and the degree of inhibition of biotinylated EGF binding to the EGF receptor was quantified using a peroxidase-linked anti-biotin antibody. The solid circles (.circle-solid.) in FIG. 3 represent the level of binding of EGF to cell receptors when the cells are subjected to various levels of naamidine A. The open circles (.largecircle.) represent the level of binding of EGF to cell receptors when the cells are subjected to various levels of EGF, which is used as a positive control.

[3] = system: insulin stimulation of EC25 cells; test: EGF mitogenic assay (3H-thymidine incorporation), insulin stimulation as nonspecific mitogen control; format: cell-based; details: pure sample
Method: as §1, §2

c-src tyrosine kinase = c-src tyrosine kinase (Homo sapiens, UniProt P12931); test: c-src tyrosine kinase assay (phosphorylation of RCM lysozyme); format: biochemical; details: isolated c-src, RCM lysozyme substrate, 30 minutes
Method: Experimental Test 5. […] In this assay, phosphorylation of the substrate RCM (reduced, carboxyamidomethylated and maleylated) lysozyme by c-src is quantified using a peroxidase-linked anti-phosphotyrosine antibody to determine the activity of this kinase.
The sample of naamidine A was incubated with the substrate RCM […], c-src enzyme, and ATP for 30 minutes, after which time the reaction was terminated and tyrosine phosphorylation was assessed using a peroxidase-linked antiphosphotyrosine antibody.

[4] = system: human squamous cell carcinoma (A431); test: first in vivo test, A431 xenograft in athymic mice, assessed 15 days after implantation (Experimental Test 7); set-up: species or system human tumor in athymic mice; details: for % Inhibition of tumor growth: q1d×5;1, 15 days; for toxicity: 100 mg/kg
Method: Tumor growth was assessed by measuring the change in tumor size over a fifteen day period. Although naamidine A inhibited tumor growth, the inhibition was a modest 37%. Therefore, a second evaluation was carried out using a different schedule of treatment and evaluation.
J. Oncology, 1:293-298 (1992).
Tumor growth was calculated as FTS/ITS. […] Experimental Test 7.
The effect of naamidine A on the tumor was assessed 15 days after tumor implantation and there were six mice per treatment group.

[5] = 25 mg/kg, listed as Naamidine A

Method for HCT116 colon cells: In the XTT assay, cells are plated at 4000 cells/well in 96 well microtiter plates; 24 hours later the test drugs are added and serially diluted. The cells are incubated at 37° C. for 72 hours, at which time the tetrazolium dye, XTT, is added. A dehydrogenase enzyme in live cells reduces the XTT to a form that absorbs light at 450 nm which can be quantitated spectrophotometrically. The greater the absorbance the greater the number of live cells. The results are expressed as an IC50 which is the drug concentration required to inhibit cell proliferation (i.e., absorbance at 450 nm) to 50% of that of untreated control cells.

Substance: naamidine A
- general in vitro cytotoxicity (in words) (HCT116 colon cells): relatively low general in vitro cytotoxicity
- IC50 (HCT116 colon cells; HCT116, XTT, 72 hours): 31 µg/mL
- activity in the EGF assay (in words) ([1]; EC25 cells): very good activity
- IC50(EGF) ([1]; EC25 cells, EGF stimulation, pure sample): 4.8 µg/mL
- IC50(insulin)/IC50(EGF) ratio ([1]; EC25 cells, specificity ratio): 22
- specificity for EGF versus insulin stimulated response (in words) ([1]; tritiated thymidine incorporation after EGF or insulin stimulation): less potent in inhibiting insulin stimulated cell proliferation compared to EGF stimulated growth; also recorded: more specific for the EGF mediated mitogenic response than for the insulin mediated mitogenic response
- selectivity in inhibiting EGF dependent growth relative to insulin dependent growth ([1]; tritiated thymidine incorporation, preliminary testing): about 22 times
- % Inhibition of tumor growth ([2]; 1.56 mg/kg): 47.9%
- % Inhibition of tumor growth ([2]; 3.13 mg/kg): 35%
- % Inhibition of tumor growth ([2]; 6.25 mg/kg): -7.5%
- % Inhibition of tumor growth ([2]; 12.5 mg/kg): 52%
- % Inhibition of tumor growth ([2]; 25 mg/kg): at least 85%
- % Inhibition of tumor growth [2, 5]: 87.4%
- % Inhibition of tumor growth ([2]; 50 mg/kg): 96.4%
- deaths (in words) ([2]; mice, 25 mg/kg): death of one mouse
- deaths ([2]; mice, 25 mg/kg): 1 death
- toxicity (in words) ([2]; mice, 50 mg/kg): toxic to many of the mice
- deaths ([2]; mice, 50 mg/kg): 2 deaths
- maximal tolerated dose ([2]; mice, q1d×5;1, 10080 min): 25 mg/kg
- LD-10 (dose at which 10% of the mice died) ([2]; mice, q1d×5;1, roughly estimated from Experimental Test 8): about 25 mg/kg
- Tumor growth inhibition ([2]; somewhat toxic doses, 7 days, best results at about 25 mg/kg): about 85%
- effect on binding of EGF to its receptor (EGF receptor): does not appear to affect the binding of EGF to its corresponding receptor cite; also recorded: did not appear to effect the binding of EGF to receptor sites
- IC50(insulin) [3]: 105.6 µg/mL
- inhibition of c-src tyrosine kinase activity (in words) (c-src tyrosine kinase): lack of c-src tyrosine kinase activity; also recorded: not inhibit the activity of the isolated c-src tyrosine kinase; also recorded: no significant inhibition of c-src tyrosine kinase activity
- % Inhibition of tumor growth ([4]; 1.6 mg/kg): 36.6%
- % Inhibition of tumor growth ([4]; 6.25 mg/kg): 32.2%
- % Inhibition of tumor growth ([4]; 25 mg/kg): 37%
- % Inhibition of tumor growth [4, 5]: 37.1%
- net reduction in tumor cell growth ([4]; first in vivo test, 15 days, includes period of regrowth): 30-40%
- toxicity ([4]; mice, q1d×5;1): toxic to the mice
- toxicity ([4]; mice, q1d×5;1, listed as Naamidine A): toxic (multiple deaths)
- maximally tolerated dose ([4]; mice, q1d×5;1, 21600 min): 25 mg/kg
